Measured values as given in patent US20090099213A1, “Ortho-Condensed Pyridine and Pyrimidine Derivatives (e.g., Purines) as Protein Kinases Inhibitors” (Astex Therapeutics Limited, priority 2004, published 2009).
Like-named read-outs stand apart in the source and are kept apart here.

How the values were obtained:
PKB-PIF = target: T1, PKB-PIF (Homo sapiens, UniProt P31751); experiment: Measurement of PKB kinase inhibitory activity (IC50), radiometric filter plate assay; type: biochemical
T1 construct: fusion partner; made in house
T1 sequence (P31751 with tags, fused parts or gaps limits assumed): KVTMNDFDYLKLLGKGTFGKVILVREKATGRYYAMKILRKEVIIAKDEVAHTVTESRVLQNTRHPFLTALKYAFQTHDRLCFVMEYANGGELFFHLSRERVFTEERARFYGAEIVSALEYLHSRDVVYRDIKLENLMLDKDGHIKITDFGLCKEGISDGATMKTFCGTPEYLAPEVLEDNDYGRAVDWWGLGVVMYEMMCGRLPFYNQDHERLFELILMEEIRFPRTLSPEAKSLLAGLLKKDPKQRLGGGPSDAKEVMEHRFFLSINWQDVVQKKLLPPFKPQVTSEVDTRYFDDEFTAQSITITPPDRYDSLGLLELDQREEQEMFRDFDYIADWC
Excerpt: The inhibition of protein kinase B (PKB) activity by compounds can be determined essentially as described by Andjelkovic et al. (Mol. Cell. Biol. 19, 5061-5072 (1999)) but using a fusion protein described as PKB-PIF and described in full by Yang et al (Nature Structural Biology 9, 940-944 (2002)). The protein is purified and activated with PDK1 as described by Yang et al. The peptide AKTide-2T (H-A-R-K-R-E-R-T-Y-S-F-G-H-H-A-OH) obtained from Calbiochem (#123900) is used as a substrate. A final concentration of 0.6 nM enzyme is used in a buffer that includes 20 mM MOPS pH 7.2, 30 μM ATP/γ^33P-ATP and 25 μM substrate. Compounds are added in DMSO solution to a final DMSO concentration of 2.5%. The reaction is allowed to proceed for 20 minutes before addition of excess orthophosphoric acid to quench activity. The reaction mixture is transferred to a phosphocellulose filter plate where the peptide binds and the unused ATP is washed away. After washing, scintillant is added and the incorporated activity measured by scintillation counting.
The % inhibition of the PKB activity is calculated and plotted in order to determine the concentration of test compound required to inhibit 50% of the PKB activity (IC50).

PKA catalytic domain = target: T2, PKA catalytic domain (Homo sapiens, UniProt P17612); experiment: Measurement of PKA kinase inhibitory activity (IC50), radiometric filter plate assay; type: biochemical; conditions: 1 nM enzyme, 40 μM ATP, 20 minutes
T2 construct: using the PKA catalytic domain from Upstate Biotechnology (#14-440); purchased Upstate Biotechnology 14-440
Experimental: Compounds of the invention can be tested for PK inhibitory activity using the PKA catalytic domain from Upstate Biotechnology (#14-440) and the 9 residue PKA specific peptide ([…]), also from Upstate Biotechnology (#12-257), as the substrate. A final concentration of 1 nM enzyme is used in a buffer that includes 20 mM MOPS pH 7.2, 40 μM ATP/γ^33P-ATP and […] substrate. Compounds are added in dimethylsulphoxide (DMSO) solution to a final DMSO concentration of 2.5%. The reaction is allowed to proceed for 20 minutes before addition of excess orthophosphoric acid to quench activity. Unincorporated γ^33P-ATP is then separated from phosphorylated proteins on a Millipore MAPH filter plate. The plates are washed, scintillant is added and the plates are then subjected to counting on a Packard Topcount.
The % inhibition of the PKA activity is calculated and plotted in order to determine the concentration of test compound required to inhibit 50% of the PKA activity (IC50).

[1] = 0.6 nM enzyme, 30 μM ATP, 25 μM AKTide-2T substrate, 20 minutes, read-out: IC50 (PKB activity)

Structure (SMILES)	IC50 (PKB-PIF; [1]) [µM]	IC50 (PKA catalytic domain) [µM]	IC50 (PKB-PIF) [µM]
NC(c1ccc(Cl)cc1)C1CCN(c2ccnc3[nH]ccc23)CC1 (single isomer, unassigned) [Example 32, C-(4-Chlorophenyl)-C-[1-(1H-pyrrolo[2,3-b]pyridin-4-yl)piperidin-4-yl]methylamine]	< 10		
CNCCCNc1ncnc2[nH]cnc12 [Example 1, N-Methyl-N′-(9H-purin-6-yl)-propane-1,3-diamine]	< 10		
CNCCCNc1ncnc2[nH]c(=O)[nH]c12 [Example 2, 6-(3-Methylamino-propylamino)-7,9-dihydro-purin-8-one]	< 10		
NC(CCNc1ncnc2[nH]cnc12)c1ccc(F)cc1 (centres unmarked) [Example 3, 1-(4-Fluorophenyl)-N^3-(9H-purin-6-yl)propane-1,3-diamine]	< 10		
NC(CCNc1ncnc2[nH]c(=O)[nH]c12)c1ccc(F)cc1 (centres unmarked) [Example 4, 6-[3-Amino-3-(4-fluorophenyl)propylamino]-7,9-dihydropurin-8-one]	< 10	< 150	
NC(CCNc1ncnc2[nH]cnc12)c1ccc(Cl)cc1 (centres unmarked) [Example 5, 1-(4-Chlorophenyl)-N^3-(9H-purin-6-yl)propane-1,3-diamine]	< 10	< 10	
CNCc1ccc(-c2ncnc3[nH]cnc23)cc1 [Example 6, Methyl-(4-(9H-purin-6-yl)benzyl)amine]	< 10	< 10	
CNCc1cccc(-c2ncnc3[nH]cnc23)c1 [Example 7, Methyl-(3-(9H-purin-6-yl)benzyl)amine]	< 10	< 10	
N#CCc1ccc(-c2ncnc3[nH]cnc23)cc1 [Example 8, (4-(9H-purin-6-yl)phenyl)acetonitrile]	< 50		
NCCc1ccc(-c2ncnc3[nH]cnc23)cc1 [Example 9, 2-(4-(9H-Purin-6-yl)phenyl)ethylamine]	< 50		
NCCc1cccc(-c2ncnc3[nH]cnc23)c1 [Example 10, 2-(3-(9H-purin-6-yl)phenyl)ethylamine]			< 10
NC(=O)C1CCN(c2ncnc3[nH]cnc23)CC1 [Example 11, 1-(9H-Purin-6-yl)piperidine-4-carboxylic Acid Amide]	< 50		
NCC1CCN(c2ncnc3[nH]cnc23)CC1 [Example 12, C-[1-(9H-Purin-6-yl)piperidin-4-yl]methylamine]	< 10	< 10	
NC(c1ccccc1)C1CCN(c2ncnc3[nH]c(=O)[nH]c23)CC1 (centres unmarked) [Example 13, 6-[4-(Aminophenylmethyl)piperidin-1-yl]-7,9-dihydropurin-8-one]	< 10		
NC(c1ccc(Cl)cc1)C1CCN(c2ncnc3[nH]c(=O)[nH]c23)CC1 (centres unmarked) [Example 14, 6-[4-(Amino(4-chlorophenyl)methyl)piperidin-1-yl]-7,9-dihydropurin-8-one]	< 10	< 10	
NCC1CCN(c2ncnc3[nH]c(=O)[nH]c23)CC1 [Example 15, 6-(4-Aminomethylpiperidin-1-yl)-7,9-dihydropurin-8-one]	< 10		

Structure (SMILES)	IC50 (PKB-PIF; [1]) [µM]	IC50 (PKA catalytic domain) [µM]	IC50 (PKB-PIF) [µM]
NCCCOc1cccc(-c2ncnc3[nH]cnc23)c1 [Example 16, 3-[3-(9H-Purin-6-yl)-phenoxy]-propylamine]	< 10		
NCC1CCN(c2ncnc3[nH]ncc23)CC1 [Example 17, C-[1-(1H-Pyrazolo[3,4-d]pyrimidin-4-yl)-piperidin-4-yl]-methylamine]	< 10	< 10	
NCC1CCN(c2ncnc3[nH]ccc23)CC1 [Example 18, C-[1-(7H-Pyrrolo[2,3-d]pyrimidin-4-yl)-piperidin-4-yl]-methylamine]	< 10	< 10	
NC(c1ccccc1)c1ccc(-c2ncnc3[nH]cnc23)cc1 (centres unmarked) [Example 19, C-Phenyl-C-[4-(9H-purin-6-yl)-phenyl]-methylamine]	< 10		
NC(Cc1ccccc1)c1ccc(-c2ncnc3[nH]cnc23)cc1 (centres unmarked) [Example 20, 2-Phenyl-1-[4-(9H-purin-6-yl)-phenyl]-ethylamine]	< 10	< 10	
NC(Cc1ccccc1)C1CCN(c2ncnc3[nH]c(=O)[nH]c23)CC1 (centres unmarked) [Example 21, 6-[4-(1-Amino-2-phenylethyl)piperidin-1-yl]-7,9-dihydropurin-8-one]	< 50		
Clc1ccc(C2(c3ccc(-c4ncnc5[nH]cnc45)cc3)CCNCC2)cc1 [Example 22, 6-(4-[4-(4-Chlorophenyl)-piperidin-4-yl)-phenyl)-9H-purine]	< 10	< 10	
Clc1ccc(C2(c3ccc(-c4ncnc5[nH]ccc45)cc3)CCNCC2)cc1 [Example 23, 4-{4-[4-(4-Chloro-phenyl)-piperidin-4-yl]-phenyl}-7H-pyrrolo[2,3-d]pyrimidine]	< 10	< 10	
NC(c1ccccc1)C1CCN(c2ncnc3[nH]ccc23)CC1 (centres unmarked) [Example 24, C-Phenyl-C-[1-(7H-pyrrolo[2,3-d]pyrimidin-4-yl)-piperidin-4-yl]-methylamine]	< 10		
NC(c1ccc(Cl)cc1)C1CCN(c2ncnc3[nH]ccc23)CC1 (centres unmarked) [Example 25, C-4-Chlorophenyl-C-[1-(7H-pyrrolo[2,3-d]pyrimidin-4-yl)-piperidin-4-yl]-methylamine]	< 10	< 10	
NC(c1ccc(Cl)cc1)C1CCN(c2ncnc3[nH]cnc23)CC1 (centres unmarked) [Example 26, C-(4-Chloro-phenyl)-C-[1-(9H-purin-6-yl)-piperidin-4-yl]-methylamine]	< 10		
Clc1ccc(C2(c3ccc(-c4ccnc5[nH]ccc45)cc3)CCNCC2)cc1 [Example 27, 4-{4-[4-(4-Chloro-phenyl)-piperidin-4-yl]-phenyl}-1H-pyrrolo[2,3-b]pyridine]	< 10		
NC(c1ccc(Cl)cc1)c1ccc(-c2ncnc3[nH]cnc23)cc1 (centres unmarked) [Example 28, C-(4-Chloro-phenyl)-C-[4-(9H-purin-6-yl)-phenyl]-methylamine]	< 10		
NC(c1ccc(Cl)cc1)C1CCN(c2ccnc3[nH]ccc23)CC1 (centres unmarked) [Example 29, C-(4-Chlorophenyl)-C-[1-(1H-pyrrolo[2,3-b]pyridin-4-yl)piperidin-4-yl]methylamine]	< 10	< 10	
CNCC(c1ccc(Cl)cc1)c1ccc(-c2ccnc3[nH]ccc23)cc1 (centres unmarked) [Example 30, {2-(4-Chloro-phenyl)-2-[4-(1H-pyrrolo[2,3-b]pyridin-4-yl)-phenyl]-ethyl}-methyl-amine]	< 10	< 10	
NCC1CCCN(c2ncnc3[nH]ccc23)C1 (centres unmarked) [Example 31, C-[1-(7H-Pyrrolo[2,3-d]pyrimidin-4-yl)piperidin-3-yl]methylamine]	< 10	< 10	
